Tests used:
[1] = system: oxaliplatin-induced peripheral neuropathy model mice; experiment: Oxaliplatin-induced mouse neuropathic pain model (Example 7): mechanical allodynia, Uralyt and sodium bicarbonate; assay type: in vivo, male C57BL/6J mice; details: 0.75 g/kg sodium bicarbonate oral twice per day for 13 days; OXP 3 mg/kg i.p. single dose; FIG. 14: day 10
Description: (§1) For the alkalinizing agent, the same test substance as Example 1 and sodium bicarbonate (in this description also referred to as baking soda, manufactured by Tokyo Chemical Industry Co., Ltd., purity: at least 99.0%) were used. Following weighing of the required amount of the sodium bicarbonate, sufficient injection water was added to dissolve the sodium bicarbonate and prepare a solution of the target concentration at the time of use.
(§2) In the Sham group and the control group, the injection water used as the solvent for the alkalinizing agent was used.
(§3) The same type of animals as Example 1 were used. Specifically, six-week old male C57BL/6J mice (from Japan SLC, Inc.) were used. The animals were provided with an approximately one-week acclimatization period, and only healthy individuals were then selected for testing. […]
(§4) Grouping was conducted using the pain-related scores evaluated on the day prior to starting the test (the day prior to test substance administration) as a reference, and specifically, by dividing the individuals into each of the groups to ensure the same averaged pain-related score for each group. […]
Following the OXP administration, the level of pain was evaluated over time. […] A pain evaluation was also conducted on a day prior to the start of alkalinizing agent administration, and this evaluation was recorded as the Pre value. […]

[2] = system: paclitaxel-induced peripheral neuropathy model mice; experiment: Paclitaxel-induced mouse neuropathic pain model (Example 8): mechanical allodynia, Uralyt and sodium bicarbonate; assay type: in vivo, male C57BL/6J mice; details: 0.75 g/kg sodium bicarbonate oral twice per day for 17 days; PTX 5 mg/kg i.p. single dose; FIG. 16: day 14
Description: as §1, §2, §3, §4
Following the PTX administration, the level of pain was evaluated over time. […] A pain evaluation was also conducted on a day prior to the start of alkalinizing agent administration, and this evaluation was recorded as the Pre value. […]

O=C([O-])O.[Na+] [sodium bicarbonate]
onset of mechanical allodynia (pain-related score) [1]: suppressed the onset of mechanical allodynia, but the effect was smaller than that observed for the Uralyt administration group
onset of mechanical allodynia (pain-related score) [2]: suppressed the onset of mechanical allodynia, but the effect was smaller than that observed for the Uralyt administration group
